From patent US9802918B2, “Pyridineamine compounds useful as Pim kinase inhibitors” (Incyte Corporation, priority 2015, dated 2017)
pIC50: −log10 of the molar value.

Assays:
Type in all cases: biochemical
Pim-1 = Pim-1 (Homo sapiens (Human), UniProt P11309); test: Pim-1 kinase assay; details: 1 mM ATP; read-out: Pim1 IC50
Method: Supplementation of the STOP buffer with beads and stopping the reactions were done under reduced light. Prior to the stopping reactions STOP buffer with beads was preincubated for 1 h in the dark at room temperature. After stopping the reactions, plates were incubated for 1 h in the dark at room temperature before reading on a PHERAstar FS plate reader (BMG Labtech) under reduced light.

Pim-2 = Pim-2 (Homo sapiens (Human), UniProt Q9P1W9); test: Pim-2 kinase assay; details: 1 mM ATP; read-out: Pim2 IC50
Method: Pim-2 kinase assay—20 μL reactions were run in white 384 well polystyrene plates dotted with 0.8 μL compound/DMSO in the assay buffer (50 mM Tris, pH 7.5, 0.01% Tween-20, 5 mM mgCl2, 0.01% BSA, 5 mM DTT), containing […] Fluorescein-labeled CREBtide peptide substrate (Invitrogen PV3508), 1 mM ATP, and 1 nM enzyme (Invitrogen PV3649) for 2 h at 25° C. Reactions were stopped by addition of 10 μL TR-FRET Dilution Buffer (Invitrogen PV3574) with 30 mM EDTA and 1.5 nM LanthaScreen Tb-CREB pSer133 antibody (Invitrogen PV3566). After 30 min. incubation at room temperature, plates were read on a PHERAstar FS plate reader (BMG Labtech).

Pim-3 = Pim-3 (Homo sapiens (Human), UniProt Q86V86); test: Pim-3 kinase assay; details: 1 mM ATP; read-out: Pim3 IC50
Method: Pim-1 and Pim-3 kinase assays-20 μL reactions were run in white 384 well polystyrene plates dotted with 0.8 μL compound/DMSO in the assay buffer (50 mM Tris, pH 7.5, 0.01% Tween-20, 5 mM mgCl2, 0.01% BSA, 5 mM DTT), containing […] Biotin-labeled BAD peptide substrate (AnaSpec 62269), 1 mM ATP, and 2.5 pM (Pim-1, Invitrogen PV3503) or 1.25 pM (Pim-3, Millipore 14-738) enzyme for 1 h at 25° C. Reactions were stopped by addition of 10 μL STOP Buffer (150 mM Tris, pH=7.5, 150 mM NaCl, 75 mM EDTA, 0.01% Tween-20, 0.3% BSA,) supplemented with Phospho-Bad (Ser112) Antibody (Cell Signaling 9291) diluted 666-fold, and Streptavidin donor beads (PerkinElmer 6760002) along with Protein-A acceptor beads (PerkinElmer 6760137) at 15 μg/mL each. Supplementation of the STOP buffer with beads and stopping the reactions were done under reduced light. Prior to the stopping reactions STOP buffer with beads was preincubated for 1 h in the dark at room temperature. After stopping the reactions, plates were incubated for 1 h in the dark at room temperature before reading on a PHERAstar FS plate reader (BMG Labtech) under reduced light.

Pim-1, sequence (P11309 whole entry): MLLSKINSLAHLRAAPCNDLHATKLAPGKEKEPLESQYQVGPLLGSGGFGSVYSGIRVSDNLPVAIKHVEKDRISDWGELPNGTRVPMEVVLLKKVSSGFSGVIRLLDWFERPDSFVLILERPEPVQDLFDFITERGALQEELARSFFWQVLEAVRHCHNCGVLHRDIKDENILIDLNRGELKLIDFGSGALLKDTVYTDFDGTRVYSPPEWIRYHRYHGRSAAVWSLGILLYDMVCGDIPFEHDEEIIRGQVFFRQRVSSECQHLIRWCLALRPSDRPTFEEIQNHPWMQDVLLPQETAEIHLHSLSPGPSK
Pim-2, sequence (Q9P1W9 whole entry): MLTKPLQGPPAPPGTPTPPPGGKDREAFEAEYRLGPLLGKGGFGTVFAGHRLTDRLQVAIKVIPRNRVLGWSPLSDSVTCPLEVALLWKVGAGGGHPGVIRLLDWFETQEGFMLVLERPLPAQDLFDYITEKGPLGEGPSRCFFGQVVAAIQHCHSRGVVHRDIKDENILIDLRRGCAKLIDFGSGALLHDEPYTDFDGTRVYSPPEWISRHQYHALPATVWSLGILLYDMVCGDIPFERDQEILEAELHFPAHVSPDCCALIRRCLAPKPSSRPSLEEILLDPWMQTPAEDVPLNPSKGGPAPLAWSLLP

SMILES	pIC50 (Pim-1)	pIC50 (Pim-2)	pIC50 (Pim-3)
C[C@H]1CN(c2ccncc2NCc2ccc(F)c(-c3c(F)cc4ncccc4c3F)n2)C[C@@H](N)[C@@H]1O [Example 37, (3R,4R,5S)-3-Amino-1-[3-({[6-(5,7-difluoroquinolin-6-yl)-5-fluoropyridin-2-yl]methyl}amino)pyridin-4-yl]-5-methylpiperidin-4-ol]	> 8.00	6.00 to 7.00	≥ 8.00
C[C@@H]1C[C@H](N)CN(c2ccncc2NCc2ccc(F)c(-c3c(F)cc4ncccc4c3F)n2)C1 [Example 38, 4-[(3S,5R)-3-Amino-5-methylpiperidin-1-yl]-N-{[6-(5,7-difluoroquinolin-6-yl)-5-fluoropyridin-2-yl]methyl}pyridin-3-amine]	> 8.00	6.00 to 7.00	≥ 8.00
C[C@H]1CN(c2ccncc2NCc2ccc(F)c(-c3c(F)cc(CN4CCOCC4)cc3F)n2)C[C@@H](N)[C@@H]1O [Example 39, (3R,4R,5S)-3-Amino-1-{3-[({6-[2,6-difluoro-4-(morpholin-4-ylmethyl)phenyl]-5-fluoropyridin-2-yl}methyl)amino]pyridin-4-yl}-5-methylpiperidin-4-ol]	> 8.00	≥ 7.00	≥ 8.00
CNCc1cc(F)c(-c2nc(CNc3cnccc3N3C[C@@H](N)[C@H](O)[C@@H](C)C3)ccc2F)c(F)c1 [Example 40, (3R,4R,5S)-3-Amino-1-(3-(((6-(2,6-difluoro-4-((methylamino)methyl)phenyl)-5-fluoropyridin-2-yl)methyl)amino)pyridin-4-yl)-5-methylpiperidin-4-ol]	> 8.00	6.00 to 7.00	≥ 8.00
C[C@H]1CN(c2ccncc2NCc2ccc(F)c(-c3c(F)cc(CN4CCC4)cc3F)n2)C[C@@H](N)[C@@H]1O [Example 41, (3R,4R,5S)-3-Amino-1-(3-(((6-(4-(azetidin-1-ylmethyl)-2,6-difluorophenyl)-5-fluoropyridin-2-yl)methyl)amino)pyridin-4-yl)-5-methylpiperidin-4-ol]	> 8.00	6.00 to 7.00	≥ 8.00
C[C@H]1CN(c2ccncc2NCc2ccc(F)c(-c3c(F)cc(CN4CC[C@@H](O)C4)cc3F)n2)C[C@@H](N)[C@@H]1O [Example 42, (3R,4R,5S)-3-Amino-1-(3-(((6-(2,6-difluoro-4-(((R)-3-hydroxypyrrolidin-1-yl)methyl)phenyl)-5-fluoropyridin-2-yl)methyl)amino)pyridin-4-yl)-5-methylpiperidin-4-ol]	> 8.00	≥ 7.00	≥ 8.00
C[C@H]1CN(c2ccncc2NCc2ccc(F)c(-c3c(F)cc(CN4CC[C@H](O)C4)cc3F)n2)C[C@@H](N)[C@@H]1O [Example 43, (3R,4R,5S)-3-Amino-1-(3-(((6-(2,6-difluoro-4-(((S)-3-hydroxypyrrolidin-1-yl)methyl)phenyl)-5-fluoropyridin-2-yl)methyl)amino)pyridin-4-yl)-5-methylpiperidin-4-ol]	> 8.00	≥ 7.00	≥ 8.00
C[C@H]1CN(c2ccncc2NCc2ccc(F)c(-c3c(F)cc(CN4CC[C@@H](C#N)C4)cc3F)n2)C[C@@H](N)[C@@H]1O [Example 44, (R)-1-(4-(6-((4-((3R,4R,5S)-3-Amino-4-hydroxy-5-methylpiperidin-1-yl)pyridin-3-ylamino)methyl)-3-fluoropyridin-2-yl)-3,5-difluorobenzyl)pyrrolidine-3-carbonitrile]	> 8.00	≥ 7.00	≥ 8.00
C[C@H]1CN(c2ccncc2NCc2ccc(F)c(-c3c(F)cc(CN4CC[C@H](C#N)C4)cc3F)n2)C[C@@H](N)[C@@H]1O [Example 45, (S)-1-(4-(6-((4-((3R,4R,5S)-3-Amino-4-hydroxy-5-methylpiperidin-1-yl)pyridin-3-ylamino)methyl)-3-fluoropyridin-2-yl)-3,5-difluorobenzyl)pyrrolidine-3-carbonitrile]	> 8.00	≥ 7.00	≥ 8.00
C[C@H]1CN(c2ccncc2NCc2ccc(F)c(-c3c(F)cc(CN4CC[C@@H](F)C4)cc3F)n2)C[C@@H](N)[C@@H]1O [Example 46, (3R,4R,5S)-3-amino-1-(3-(((6-(2,6-difluoro-4-(((R)-3-fluoropyrrolidin-1-yl)methyl)phenyl)-5-fluoropyridin-2-yl)methyl)amino)pyridin-4-yl)-5-methylpiperidin-4-ol]	> 8.00	≥ 7.00	≥ 8.00
C[C@H]1CN(c2ccncc2NCc2ccc(F)c(-c3c(F)cc(CN4CC[C@H](F)C4)cc3F)n2)C[C@@H](N)[C@@H]1O [Example 47, (3R,4R,5S)-3-amino-1-(3-(((6-(2,6-difluoro-4-(((S)-3-fluoropyrrolidin-1-yl)methyl)phenyl)-5-fluoropyridin-2-yl)methyl)amino)pyridin-4-yl)-5-methylpiperidin-4-ol]	> 8.00	≥ 7.00	≥ 8.00
C[C@@H]1C[C@H](N)CN(c2ccncc2NCc2ccc(F)c(-c3c(F)cc(CN4CCOCC4)cc3F)n2)C1 [Example 48, 4-[(3S,5R)-3-Amino-5-methylpiperidin-1-yl]-N-({6-[2,6-difluoro-4-(morpholin-4-ylmethyl)phenyl]-5-fluoropyridin-2-yl}methyl)pyridin-3-amine]	> 8.00	≥ 7.00	≥ 8.00
CNCc1cc(F)c(-c2nc(CNc3cnccc3N3C[C@H](C)C[C@H](N)C3)ccc2F)c(F)c1 [Example 49, 4-((3S,5R)-3-Amino-5-methylpiperidin-1-yl)-N-((6-(2,6-difluoro-4-((methylamino)methyl)phenyl)-5-fluoropyridin-2-yl)methyl)pyridin-3-amine]	> 8.00	6.00 to 7.00	≥ 8.00
C[C@@H]1C[C@H](N)CN(c2ccncc2NCc2ccc(F)c(-c3c(F)cc(CN4CCC4)cc3F)n2)C1 [Example 50, 4-((3S,5R)-3-Amino-5-methylpiperidin-1-yl)-N-((6-(4-(azetidin-1-ylmethyl)-2,6-difluorophenyl)-5-fluoropyridin-2-yl)methyl)pyridin-3-amine]	> 8.00	6.00 to 7.00	≥ 8.00
C[C@@H]1C[C@H](N)CN(c2ccncc2NCc2ccc(F)c(-c3c(F)cc(CN4CC[C@@H](O)C4)cc3F)n2)C1 [Example 51, (R)-1-(4-(6-((4-((3S,5R)-3-Amino-5-methylpiperidin-1-yl)pyridin-3-ylamino)methyl)-3-fluoropyridin-2-yl)-3,5-difluorobenzyl)pyrrolidin-3-ol]	> 8.00	≥ 7.00	≥ 8.00
C[C@@H]1C[C@H](N)CN(c2ccncc2NCc2ccc(F)c(-c3c(F)cc(CN4CC[C@H](O)C4)cc3F)n2)C1 [Example 52, (S)-1-(4-(6-((4-((3S,5R)-3-Amino-5-methylpiperidin-1-yl)pyridin-3-ylamino)methyl)-3-fluoropyridin-2-yl)-3,5-difluorobenzyl)pyrrolidin-3-ol]	> 8.00	≥ 7.00	≥ 8.00
C[C@@H]1C[C@H](N)CN(c2ccncc2NCc2ccc(F)c(-c3c(F)cc(CN4CC[C@@H](C#N)C4)cc3F)n2)C1 [Example 53, (R)-1-(4-(6-((4-((3S,5R)-3-amino-5-methylpiperidin-1-yl)pyridin-3-ylamino)methyl)-3-fluoropyridin-2-yl)-3,5-difluorobenzyl)pyrrolidine-3-carbonitrile]	> 8.00	≥ 7.00	≥ 8.00
C[C@@H]1C[C@H](N)CN(c2ccncc2NCc2ccc(F)c(-c3c(F)cc(CN4CC[C@H](C#N)C4)cc3F)n2)C1 [Example 54, (S)-1-(4-(6-((4-((3S,5R)-3-amino-5-methylpiperidin-1-yl)pyridin-3-ylamino)methyl)-3-fluoropyridin-2-yl)-3,5-difluorobenzyl)pyrrolidine-3-carbonitrile]	> 8.00	≥ 7.00	≥ 8.00
C[C@@H]1C[C@H](N)CN(c2ccncc2NCc2ccc(F)c(-c3c(F)cc(CN4CC[C@@H](F)C4)cc3F)n2)C1 [Example 55, 4-((3S,5R)-3-amino-5-methylpiperidin-1-yl)-N-((6-(2,6-difluoro-4-(((R)-3-fluoropyrrolidin-1-yl)methyl)phenyl)-5-fluoropyridin-2-yl)methyl)pyridin-3-amine]	> 8.00	≥ 7.00	≥ 8.00
